The subject of the test is beta-TC6 cells. The test is described as follows: Insulin HTRF assay (relative activity Ar) in beta-TC6 cells. It counts as cell-based, mouse. As to conditions: Mus musculus, Beta-TC6, 4 h, insulin HTRF, supernatant of beta-TC6 cells, incubation with test compound at 37°C for 2, 3, 4h; read-out: Ar (relative activity). An excerpt: For further screening of compounds derived from compounds described above for their ability to regulate insulin release an insulin HTRF® (Homogeneous Time-Resolved Fluorescence; Cisbio International, France) was used. This assay is based on two antibodies against insulin binding to different epitopes of insulin. One of these antibodies is coupled to Europium (Ab-Eu-Cryptate) and the other one to the fluorophore XL665 (Ab-XL665). If the insulin is secreted into the supernatant of cell culture, both antibodies can bind to insulin and come therefore into close proximity, which allows upon excitation that energy transfer between (FRET) the long-life fluorescent donor Europium (cryptate) and the acceptors XL665. FRET increases proportionally with insulin concentration.
The automated assay protocol is as follows: • On day 1, 15k beta-TC6 cells per well were seeded for 24 or 48 h in 50 µL complete medium. On day 2 or respective on day 3, the medium is removed and cells are washed with 60 µL 1xPBS and 20 µL induction buffer is added using BioTek washer. Subsequently, 10 µL Sunitininb (5 -µM f.c.) or the test compound in induction buffer; 0.5% f.c. DMSO (CyBi-well) is transferred to the cells. The cells are then incubated at 37°C for 2, 3, 4h.
First 10 µL supernatant is transferred from the cell plates in HTRF plates (CyBi-well). 10 µL of 0, 1, 2, and 4 ng/ml insulin standard controls in assay medium is used as a control. To each well 10 µL of combined 1:25 Ab-XL665 (Acc) and 1:20 Ab-Eu-Cryptate (WellMate) are added and incubated for 120 min at RT in the dark. Finally HTRF is measured on ViewLux ultra high throughput microplate imager (PerkinElmer).
The evaluation software DataFactoty derives relative activities Ar according to the following equation: Ar = (V-R(0%control))/(R(100%control) -R0%control)) × 100 [formula]
The activity of the compounds was classified according to their Ar (relative activity) into the following ranges: […]
On the technique in general: Time-resolved FRET reads energy transfer from a long-lived donor to a nearby acceptor.

Here are results for 35 molecules from patent EP2818472A1, “Imidazo[4,5-c]pyridine and pyrrolo[3,2-c]pyridine compounds as G-protein-coupled receptor kinase 5 (GRK5) modulators” (Max-Planck-Gesellschaft zur Förderung der Wissenschaften …, priority 2013, dated 2014).

`COc1ccc(-c2cc3c(cn2)nc(NCc2ccccc2)n3C)cc1` [Compound 839, N-benzyl-6-(4-methoxyphenyl)-1-methyl-imidazo[4,5-c]pyridin-2-amine]: the Emax is 30 to 50%.
To `CNc1nc2cnc(-c3ccccc3)cc2n1Cc1ccc(OC)c(OC)c1` [Compound 669, 1-[(3,4-dimethoxyphenyl)methyl]-N-methyl-6-phenyl-imidazo[4,5-c]pyridin-2-amine] belongs 30 to 50%; to `Cc1cccc(CNc2nc3cnc(Nc4ccc(F)cc4)cc3n2C)c1` [Compound 582, N6-(4-fluorophenyl)-1-methyl-N2-(m-tolylmethyl)imidazo[4,5-c]pyridine-2,6-diamine], 30 to 50%.
To `CNc1nc2cnc(Nc3cccc(F)c3)cc2n1-c1cc(OC)c(OC)c(OC)c1` [Compound 494, N6-(3-fluorophenyl)-N2-methyl-1-(3,4,5-trimethoxyphenyl)imidazo[4,5-c]pyridine-2,6-diamine] belongs 30 to 50%; to `CNc1nc2cnc(Nc3ccc(NC(C)=O)cc3)cc2n1CC1CC1` [Compound 568, N-[4-[[1-(cyclopropylmethyl)-2-(methylamino)imidazo[4,5-c]pyridin-6-yl]amino]phenyl]acetamide], 50 to 100%.
In the case of `Cn1c(-c2cccnc2)cc2c(Nc3ccc(F)cc3)nccc21` [Compound 242, N-(4-fluorophenyl)-1-methyl-2-(3-pyridyl)pyrrolo[3,2-c]pyridin-4-amine] it was 0 to 30%.
Regarding `CNc1nc2cnc(Nc3ccc(C(N)=O)cc3)cc2n1Cc1ccc(OC)c(OC)c1` [Compound 664, 4-[[1-[(3,4-dimethoxyphenyl)methyl]-2-(methylamino)imidazo[4,5-c]pyridin-6-yl]amino]benzamide], the Emax lay in the range of 50 to 100%.
In the case of `CC(=O)Nc1ccc(Nc2cc3c(cn2)ncn3Cc2ccco2)cc1` [Compound 692, N-[4-[[1-(2-furylmethyl)imidazo[4,5-c]pyridin-6-yl]amino]phenyl]acetamide] it was 30 to 50%.
To `COCc1nc2cnc(Nc3cc(OC)c(OC)c(OC)c3)cc2n1C` [Compound 745, 2-(methoxymethyl)-1-methyl-N-(3,4,5-trimethoxyphenyl)imidazo[4,5-c]pyridin-6-amine] belongs 30 to 50%; to `CC(=O)N(C)c1cccc(-c2cc3cnc(Nc4ccc(C(=O)N(C)C)cc4)cc3n2C)c1` [Compound 172, 4-[[2-[3-[acetyl(methyl)amino]phenyl]-1-methyl-pyrrolo[3,2-c]pyridin-6-yl]amino]-N,N-dimethyl-benzamide], 50 to 100%; to `COc1ccccc1-c1cc2c(Nc3ccc4c(c3)OCO4)nccc2[nH]1` [Compound 296, N-(1,3-benzodioxol-5-yl)-2-(2-methoxyphenyl)-1H-pyrrolo[3,2-c]pyridin-4-amine], 30 to 50%.
For the molecule `COc1ccc(Nc2nccc3[nH]c(-c4cccc(F)c4)cc23)cc1O` [Compound 204, 5-[[2-(3-fluorophenyl)-1H-pyrrolo[3,2-c]pyridin-4-yl]amino]-2-methoxy-phenol], the Emax lay within 50 to 100%.
As for `COc1cccc(-c2nc3c(Nc4ccccc4)nccc3[nH]2)c1F` [Compound 472, 2-(2-fluoro-3-methoxy-phenyl)-N-phenyl-1H-imidazo[4,5-c]pyridin-4-amine], the Emax was 50 to 100%.
To `CN(C)C(=O)c1ccc(Nc2cc3c(cn2)cc(-c2cnn(C)c2)n3C)cc1` [Compound 148, N,N-dimethyl-4-[[1-methyl-2-(1-methylpyrazol-4-yl)pyrrolo[3,2-c]pyridin-6-yl]amino]benzamide] belongs above 100%; to `CNc1nc2cnc(Nc3cccnc3)cc2n1-c1ccccc1` [Compound 507, N2-methyl-1-phenyl-N6-(3-pyridyl)imidazo[4,5-c]pyridine-2,6-diamine], 30 to 50%; to `CN(C)C(=O)c1ccc(-c2cc3cnc(Nc4cccc(Cl)c4)cc3[nH]2)cc1` [Compound 23, 4-[6-(3-chloroanilino)-1H-pyrrolo[3,2-c]pyridin-2-yl]-N,N-dimethyl-benzamide], 30 to 50%.
To `CNc1nc2cnc(-c3ccc(NC(C)=O)cc3)cc2n1Cc1ccccc1` [Compound 799, N-[4-[1-benzyl-2-(methylamino)imidazo[4,5-c]pyridin-6-yl]phenyl]acetamide] belongs 0 to 30%; to `COc1ccc(OC)c(CCNc2nc3cnc(-c4cccc(C(N)=O)c4)cc3n2C)c1` [Compound 822, 3-[2-[2-(2,5-dimethoxyphenyl)ethylamino]-1-methyl-imidazo[4,5-c]pyridin-6-yl]benzamide], 0 to 30%.
Turning to `COc1ccc(CNc2nc3cnc(Nc4ccc(N5CCN(C)CC5)cc4)cc3n2C)cc1OC` [Compound 605, N2-[(3,4-dimethoxyphenyl)methyl]-1-methyl-N6-[4-(4-methylpiperazin-1-yl)phenyl]imidazo[4,5-c]pyridine-2,6-diamine], the Emax is 50 to 100%.
For `COc1cccc(Nc2nccc3[nH]c(-c4ccncc4)nc23)c1` [Compound 422, N-(3-methoxyphenyl)-2-(4-pyridyl)-1H-imidazo[4,5-c]pyridin-4-amine], the Emax fell in the range of 30 to 50%.
On to `CNc1nc2cnc(Nc3ccccn3)cc2n1-c1cccc(C(F)(F)F)c1` [Compound 548, N2-methyl-N6-(2-pyridyl)-1-[3-(trifluoromethyl)phenyl]imidazo[4,5-c]pyridine-2,6-diamine], for which the Emax is 30 to 50%.
In the case of `CC(=O)Nc1cccc(Nc2cc3[nH]c(-c4cccc(F)c4)cc3cn2)c1` [Compound 15, N-[3-[[2-(3-fluorophenyl)-1H-pyrrolo[3,2-c]pyridin-6-yl]amino]phenyl]acetamide] it was 30 to 50%; in that of `COc1cccc(Nc2cc3[nH]c(-c4cncn4C)cc3cn2)c1` [Compound 101, N-(3-methoxyphenyl)-2-(3-methylimidazol-4-yl)-1H-pyrrolo[3,2-c]pyridin-6-amine], 50 to 100%; in that of `Cn1c(-c2ccsc2)cc2c(Nc3cccc(S(C)(=O)=O)c3)nccc21` [Compound 282, 1-methyl-N-(3-methylsulfonylphenyl)-2-(3-thienyl)pyrrolo[3,2-c]pyridin-4-amine], 30 to 50%.
As for `CN(C)C(=O)c1ccc(-c2cc3cnc(Nc4ccncn4)cc3n2Cc2ccccc2)cc1` [Compound 58, 4-[1-benzyl-6-(pyrimidin-4-ylamino)pyrrolo[3,2-c]pyridin-2-yl]-N,N-dimethyl-benzamide], the Emax is 30 to 50%.
In the case of `CNc1nc2cnc(Nc3ccc(OC)cc3OC)cc2n1C` [Compound 610, N6-(2,4-dimethoxyphenyl)-N2,1-dimethyl-imidazo[4,5-c]pyridine-2,6-diamine] it was 50 to 100%; in that of `CNc1nc2cnc(Nc3ccc(F)cc3)cc2n1C` [Compound 611, N6-(4-fluorophenyl)-N2,1-dimethyl-imidazo[4,5-c]pyridine-2,6-diamine], 30 to 50%; in that of `COc1ccc(-c2cc3c(cn2)nc(NCc2cccnc2)n3C)cc1OC` [Compound 862, 6-(3,4-dimethoxyphenyl)-1-methyl-N-(3-pyridylmethyl)imidazo[4,5-c]pyridin-2-amine], 0 to 30%.
For the molecule `CN(C)c1ccc(-c2cc3cnc(Nc4ccncn4)cc3n2Cc2ccccc2)cc1` [Compound 61, 1-benzyl-2-(4-dimethylaminophenyl)-N-pyrimidin-4-yl-pyrrolo[3,2-c]pyridin-6-amine], the Emax is 0 to 30%.
To `COc1cccc(-c2cc3c(cn2)ncn3Cc2ccc(OC)c(OC)c2)c1` [Compound 754, 1-[(3,4-dimethoxyphenyl)methyl]-6-(3-methoxyphenyl)imidazo[4,5-c]pyridine] belongs 0 to 30%; to `CNc1nc2cnc(Nc3cc(OC)c(OC)c(OC)c3)cc2n1-c1cccc(C(F)(F)F)c1` [Compound 539, N2-methyl-1-[3-(trifluoromethyl)phenyl]-N6-(3,4,5-trimethoxyphenyl)imidazo[4,5-c]pyridine-2,6-diamine], 30 to 50%; to `Cn1c(-c2ccccc2)cc2c(Nc3ccccn3)nccc21` [Compound 327, 1-methyl-2-phenyl-N-(2-pyridyl)pyrrolo[3,2-c]pyridin-4-amine], 50 to 100%.
Consider `COc1ccc(Cn2cnc3cnc(Nc4ccc5c(c4)OCO5)cc32)cc1OC` [Compound 731, N-(1,3-benzodioxol-5-yl)-1-[(3,4-dimethoxyphenyl)methyl]imidazo[4,5-c]pyridin-6-amine], for which the Emax fell in the range of 50 to 100%.
To `Cn1c(-c2cccc(F)c2)cc2cnc(Nc3ccc(O)cc3)cc21` [Compound 17, 4-[[2-(3-fluorophenyl)-1-methyl-pyrrolo[3,2-c]pyridin-6-yl]amino]phenol] belongs 50 to 100%.
To `COc1cccc(-c2cc3c(Nc4ccccc4)nccc3[nH]2)c1` [Compound 309, 2-(3-methoxyphenyl)-N-phenyl-1H-pyrrolo[3,2-c]pyridin-4-amine] belongs 30 to 50%.
